For assay [1], the target named is T1, Zebrafish VDRβ (Danio rerio, UniProt Q1L673).
T1 sequence (Q1L673 1-422): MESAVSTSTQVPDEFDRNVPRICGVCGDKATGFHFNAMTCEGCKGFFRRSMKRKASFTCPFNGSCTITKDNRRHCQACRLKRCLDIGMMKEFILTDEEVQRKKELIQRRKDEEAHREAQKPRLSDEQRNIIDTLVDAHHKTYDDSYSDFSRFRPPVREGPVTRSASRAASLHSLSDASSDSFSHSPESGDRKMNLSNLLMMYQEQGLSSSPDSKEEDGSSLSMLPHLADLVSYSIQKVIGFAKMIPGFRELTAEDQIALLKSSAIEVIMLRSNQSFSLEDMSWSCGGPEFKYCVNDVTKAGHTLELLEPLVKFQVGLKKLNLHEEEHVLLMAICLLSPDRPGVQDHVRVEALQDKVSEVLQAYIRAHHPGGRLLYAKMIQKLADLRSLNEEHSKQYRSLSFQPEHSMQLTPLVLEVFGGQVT
In words: Transient transactivation assay (XREM-Luc, HepG2). Type of assay: cell-based. Set-up: expressed in transfected cells; host or cells: HepG2. Particulars: 100 μM LCA; co-transfected human RXRWT; vs VDR alone. How it is done:
HepG2 cells (American Type Culture Collection #HB-8065) were cultured in T75 flasks with vented caps (Corning Life Sciences, Corning, NY) using Minimum Essential Medium (MEM) with phenol red supplemented with 10% fetal bovine serum, 1 mM sodium pyruvate, and 1X MEM non-essential amino acids. Cells were maintained following standard protocols in a 5% CO2 incubator set at 37°C, and split when 80–90% confluent.
For the transient transactivation assays, HepG2 cells were seeded in 96-well tissue culture plates at a density of 2.5x10^4 cells per well in complete phenol red-free MEM, and allowed to recover overnight. Transfections were performed the following day using Lipofectamine 2000 (Life Technologies, Grand Island, NY) as described previously. […] LCA-mediated VDR transactivation (fold activation) was calculated as the ratio of the VDR luciferase response relative to the empty vector control. […] VDR response in the absence of coregulators was analyzed using a 1-way ANOVA followed by Dunnett’s multiple comparisons test. To examine the effects of different coregulators on VDR activation, data were analyzed using a 2-way ANOVA followed by Bonferroni’s multiple comparisons test in GraphPad Prism (GraphPad Inc, San Diego, CA).

Assay [2] deals with T1, Zebrafish VDRβ. In words: Competitive ligand binding assay ([3H]-1,25D3 displacement). The note with it: lysate with VDR and human RXRWT; 4 nM [3H]-1,25D3; 18 hours at 4°C; Cheng-Prusoff; mean ± SEM. Set-up: 89.7 ng/well of full-length pSG5-VDR was co-transfected; expressed in transfected cells; host or cells: COS7. How it is done: Recombinant VDR and human RXRWT lysates were prepared from transfected COS7 cells (American Type Culture Collection #CRL-1651) as described in detail previously. Lysates were diluted 10-fold in ice-cold assay buffer (10 mM Tris HCl, 150 mM KCl, 1 mM EDTA, 0.3 mM ZnCl2, 5 mM DTT, and 1x protease inhibitor cocktail (100 μM AEBSF, 80 nM aprotinin, 5 μM bestatin, 1.5 μM E-64 (for cysteine proteases), 2 μM leupeptin, 1 μM pepstatin A), pH 7.5). […] Reactions were shaken to mix and incubated for 18 hours at 4°C. Bound and free ligand were separated with the addition of 80 μL of ice-cold separation buffer (2.5% (w/v) activated charcoal, 0.5% (w/v) dextran, 100 mM Na2HPO4, 39 mM NaH2PO4, 150 mM NaCl, 15 mM NaN3, 10% gelatin, pH 7.0), and incubated at 4°C for 15 minutes with shaking every 5 minutes. Reactions were centrifuged at 5,000 x g for 5 minutes at 4°C, and 200 μL of the supernatant containing the VDR-bound ligands was removed for scintillation counting.
Total binding was determined using lysate from cells transfected with VDR, and nonspecific binding was determined using lysate from cells transfected with the empty pSG5 vector. Specific binding was determined by subtracting non-specific binding counts from the total binding counts.

For assay [3], the target named is T1, Zebrafish VDRβ. In words: Mammalian 2-hybrid assay (VDR-coregulator interaction, HepG2). Set-up: expressed in transfected cells; host or cells: HepG2. Type of assay: cell-based. Particulars: 100 μM LCA. An excerpt: Prey constructs included full-length VDRs fused to the herpes simplex VP16 activation domain (pVP16-VDR). Bait constructs consisted of either full-length wild-type human RXR (pM-RXRWT), a truncated human RXR mutant (pM-RXRAF2), or the defined NR box of each member of the SRC/p160 family (pM-SRC1_241-386, pM-GRIP1_479-767, or pM-ACTR392-1005) fused to the yeast Gal4 DNA-binding domain. Reporters included the Gal4 luciferase reporter (5xGal4-TATA-Luc) and pRL-CMV as an internal luciferase control.
HepG2 cells were seeded into 96-well tissue culture plates as described above and transfected with Lipofectamine 2000 the following day. Each well received 33.6 ng pVP16-VDR, 33.6 ng pM-coregulator (where indicated), 126.6 ng 5XGal4-TATA-Luc, and 3 ng pRL-CMV. […] Positive controls were treated with 1,25D3 and vehicle controls were treated with ethanol. Luciferase activity was measured 24 hours post-exposure using the Dual-Glo Luciferase Assay System described above. Raw luciferase data were normalized to the pRL-CMV luciferase control. VDR-coregulator response was normalized to the pVP16-VDR in the absence of bait constructs. Results were analyzed using a two-way ANOVA followed by Bonferroni’s multiple comparisons test in Prism (GraphPad Inc, San Diego, CA). All experiments were replicated 3 times and conducted as groups of 4 replicate wells.

For `C[C@H](CCC(=O)O)[C@H]1CC[C@H]2[C@@H]3CC[C@@H]4C[C@H](O)CC[C@]4(C)[C@H]3CC[C@]12C` [LCA, 5β-cholanic acid-3α-ol], the “Effect of exogenous human RXRWT on VDR transactivation” value in assay [1] is “significantly enhanced transactivation”. Also, in assay [2], the inhibition constant Ki (commonly the equilibrium dissociation constant of an inhibitor or competing ligand from its target) came out at 6.7 ± 1.9 µM. Also, in assay [3] (bait human RXRWT, presence and absence of SRC1), the “VDR-RXRWT interaction (heterodimerization)” value is recorded as “not observed”. Also, the VDR-SRC1 interaction entry in assay [3] (cotransfection of RXRWT) is “strong VDR-SRC1 interactions”.

These data come from article PMC5152921, “Evolutionary and Functional Diversification of the Vitamin D Receptor-Lithocholic Acid Partnership” (PLoS ONE, 2016).
